Results reported in patent US20220105188A1, “TARGET PROTEIN EED DEGRADATION-INDUCING DEGRADUCER, PREPARATION METHOD THEREOF, AND PHARMACEUTICAL COMPOSITION FOR PREVENTING OR TREATING DISEASES RELATED TO EED, EZH2, OR PRC2, COMPRISING SAME AS ACTIVE INGREDIENT” (KOREA RESEARCH INSTITUTE OF CHEMICAL TECHNOLOGY, priority 2019, published 2022).

biological target: T1, EED (Homo sapiens, UniProt O75530); test: EED Proteolytic Activity Evaluation 2 (western blot, Hela cells); type: cell-based; conditions: 1 nM, 10 nM, 100 nM and 1000 nM, 20 hours of treatment
T1 construct: 2×10^5 Hela cells were injected into a 12-well plate; endogenous in cells; host or cells: HeLa
Experimental: [Experiment 2] EED Proteolytic Activity Evaluation 2
In order to evaluate the EED proteolytic activity of the compound according to the present invention, an experiment was conducted as follows.
Specifically, 2×10^5 Hela cells were injected into a 12-well plate, and after 8 hours of stabilization, each well was treated with the example compounds to have final concentrations of 1 nM, 10 nM, 100 nM, and 1000 nM. One well was treated with the volume of DMSO contained in the sample corresponding to the highest concentration in the experimental group. After 20 hours of treatment, the cells were collected and lysed using 80 μl of SDS Lysis buffer (50 mM Tris pH8.0, 1% SDS, 1 mM EDTA, 0.5 mM PMSF, and protease inhibitor cocktail) and then sonication (30 sec on/59 sec off), 5 cycles) to prepare a cell lysate, followed by protein quantification through BCA, followed by Western blot, and the results are shown in Table 3. (Maximum EED degradation rate: A: >50%, B: 25-50%, C: <25%)

T1 sequence (O75530 whole entry): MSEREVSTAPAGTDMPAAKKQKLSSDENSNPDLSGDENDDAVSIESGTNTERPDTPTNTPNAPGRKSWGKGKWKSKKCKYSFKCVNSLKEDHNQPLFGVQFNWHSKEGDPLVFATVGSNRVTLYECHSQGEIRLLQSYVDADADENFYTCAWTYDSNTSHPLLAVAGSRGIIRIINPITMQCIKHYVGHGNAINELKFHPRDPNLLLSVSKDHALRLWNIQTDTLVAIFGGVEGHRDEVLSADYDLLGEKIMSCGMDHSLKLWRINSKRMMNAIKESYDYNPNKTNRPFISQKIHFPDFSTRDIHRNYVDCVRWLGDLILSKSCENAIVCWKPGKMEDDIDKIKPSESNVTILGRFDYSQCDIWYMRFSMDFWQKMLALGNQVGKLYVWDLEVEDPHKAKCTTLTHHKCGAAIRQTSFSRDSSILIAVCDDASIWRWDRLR

EED degradation rate (Maximum EED degradation rate)	SMILES
C (C: <25%)	O=C1CCC(N2C(=O)c3ccc(NCC(=O)N4CCC(CN5CCC(n6cc(-c7cnc(NCc8ccco8)n8cnnc78)cn6)CC5)CC4)cc3C2=O)C(=O)N1 (stereo not drawn) [Example 127, 2-(2,6-dioxopiperidin-3-yl)-5-((2-(4-((4-(4-(5-((furan-2-ylmethyl)amino)-[1,2,4]triazolo[4,3-c]pyrimidin-8-yl)-1H-pyrazol-1-yl)piperidin-1-yl)methyl)piperidin-1-yl)-2-oxoethyl)amino)isoindolin-1,3-dione]
C (C: <25%)	O=C(CNc1ccc2c(c1)C(=O)N(C1CCC(=O)NC1=O)C2=O)NCCOCCOCCN1CCC(n2cc(-c3cnc(NCc4ccco4)n4cnnc34)cn2)CC1 (stereo not drawn) [Example 129, 2-((2-(2,6-dioxopiperidin-3-yl)-1,3-dioxoisoindolin-5-yl)amino)-N-(2-(2-(2-(4-(4-(5-((furan-2-ylmethyl)amino)-[1,2,4]triazolo[4,3-c]pyrimidin-8-yl)-1H-pyrazol-1-yl)piperidin-1-yl)ethoxy)ethoxy)ethyl)acetamide]
B (B: 25-50%)	Cc1cccc(F)c1CN1C[C@H](c2ccc(N3CCN(CCOCCOCCOCCNC(=O)CNc4ccc5c(c4)C(=O)N(C4CCC(=O)NC4=O)C5=O)CC3)cc2)[C@@H](N(C)C)C1 (stereo partly drawn) [Example 135, N-(2-(2-(2-(2-(4-(4-((3S,4R)-4-(dimethylamino)-1-(2-fluoro-6-methylbenzyl)pyrrolidin-3-yl)phenyl)piperazin-1-yl)ethoxy)ethoxy)ethoxy)ethyl)-2-((2-(2,6-dioxopiperidin-3-yl)-1,3-dioxoisoindolin-5-yl)amino)acetamide]
